Laboratory results taken from US6444703B1, “Cyclohexane carbocyclic ester derivative and cyclodextrin complex and composition for treatment of helicobacter pylori infections” (Teikoku Chemical Industries Co., Ltd., priority 1995, dated 2002).
“And” between values parts separate entries of the source, which are not always exact repeats. Equal values may be shown once. Read-outs that look alike come from different tables or passages of the source.

Legend:
[1] = Solubility measurement (excess added to solvent, shaken one hour, supernatant assayed); assay type: physicochemical; conditions: thermodynamic from solid, 25° C.
Method: Incidentally, the method for measuring the solubility in each example is as follows. Thus, an excessive amount of the present compound was added to a certain amount of solvent, the mixture was shaken for one hour, the supernatant liquid was removed and the amount of the present compound contained therein was measured wherefrom the solubility was calculated.

[2] = tested on: Helicobacter pylori ATCC 43504; experiment: Eradication of Helicobacter pylori in stomach of infected Mongolian gerbils (viable cell counting); assay type: in vivo; conditions: oral 10 ml/kg three times on the 11th day, stomach viable cells 20 hours after final administration, individual animals 1-3, versus control 3.7 × 10^4 CFU/stomach, hydrochloride
Method: Helicobacter pylori ATCC 43504 (100 μl) was inoculated into Brain heart infusion broth containing 10% calf serum and incubated at 37° C. for 24 hours in a microaerophilic atmosphere. The culture broth (0.5 ml containing about 3×10^8 CFU/ml) was administered orally to Mongolian gerbils (MON/Jms/Gba Slc; male of six weeks age) after fasting for 24 hours, then neither feed nor water was given for four hours and, after that, the animals were given with feed and water for ten days. Three infected animals as prepared in (1) were used per group. They were fasted from 20 hours before the 11th day (although water was made freely taken by them) and, during the fasted stage, 10 ml/kg each of the test drugs for administration prepared in Examples and Comparative Examples were orally given to them at 9:00, 13:00 and 17:00 o'clock on the 11th day. Feeding was started as from 21:00 o'clock and, after 20 hours from the final administration, stomach of the animals was removed and Helicobacter pylori living therein was subjected to a viable cell counting. The stomachs were cut open and the contents were removed (no washing conducted) and homogenized in 20 ml of 0.1M phosphate buffer (pH 7.2) to give a sample for viable cell counting. […] The growing colonies were counted after 6 days. […] Incidentally, the eradication rate was calculated according to the following calculating expression. […]

solubility at 1 h ([1]; 0.05M phosphate buffer, aqueous buffer, pH 6.5, read-out: Solubility in 0.05M phosphate buffer (pH 6.5)): < 0.1 µg/mL
solubility at 1 h ([1]; 0.1M acetate buffer, aqueous buffer, pH 4.0, read-out: Solubility in 0.1M acetate buffer (pH 4.0)): < 0.1 µg/mL
solubility at 1 h ([1]; first fluid (The Japanese Pharmacopoeia), simulated gastric fluid, pH 1.2, read-out: Solubility in the first fluid (The Japanese Pharmacopoeia) (pH 1.2)): < 0.1 µg/mL
solubility at 1 h ([1]; water, read-out: Solubility in water): 24 µg/mL
Compound: Cc1ccc(COC(=O)c2ccc(-c3ccc(OC(=O)[C@H]4CC[C@H](CNC(=N)N)CC4)cc3)cc2)cc1.Cl [Comp.Ex.1, 4-[4-(4-Methylbenzyloxycarbonyl)phenyl]phenyl trans-4-guanidinomethylcyclohexanecarboxylate hydrochloride]
Eradication Rate (%) [2]: 95.7% and 62.2% and 0%
